The values below come from PubChem BioAssay AID330 (DTP/NCI, 2004).

For the test, the system named is P388 leukemia ip, CD2F1 mice, survival T/C. Kind of test: NCI In Vivo Anticancer Drug Screen. Data for tumor model P388 Leukemia (intraperitoneal) in CD2F1 (CDF1) mice. Conditions: endpoint: median survival time, higher = longer survival. In a few lines: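 Mice carrying the transplanted tumor received test compound or vehicle. Survival was recorded in each group, and the value is the treated-group measurement divided by that of the vehicle-treated control group.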

Where [1] appears, read: dose: 50.0 mg/kg/injection, schedule: Q01DX009 (ip), vehicle: saline with Tween-80.
The mark [2] stands for this setting: dose: 50.0 mg/kg/injection, schedule: Q01DX005 (ip), vehicle: saline with Tween-80.
The mark [3] stands for this setting: dose: 100.0 mg/kg/injection, schedule: Q01DX005 (ip), vehicle: saline with Tween-80.
The mark [4] stands for this setting: dose: 200.0 mg/kg/injection, schedule: Q01DX005 (ip), vehicle: saline with Tween-80.

Values joined by “and” are separate entries in the source; they are usually repeats but may differ in a detail not shown here. Equal entries are not always repeated. Toxic doses and inconclusive results are not listed.

As for `CC(=O)Nc1ccc2c(Nc3ccc(NS(C)(=O)=O)cc3)c3ccccc3nc2c1`, the T/C is 151 % of control (dose: 0.09 mg/kg/injection, schedule: Q01DX009 (ip), vehicle: saline); 156 % of control (dose: 0.09 mg/kg/injection, schedule: Q04DX003 (ip), vehicle: saline); 151 % of control (dose: 0.13 mg/kg/injection, schedule: Q01DX009 (ip), vehicle: saline); 175 % of control (dose: 0.13 mg/kg/injection, schedule: Q04DX003 (ip), vehicle: saline); 164 % of control (dose: 0.2 mg/kg/injection, schedule: Q01DX009 (ip), vehicle: saline); 166 % of control (dose: 0.2 mg/kg/injection, schedule: Q04DX003 (ip), vehicle: saline). For the same molecule, the T/C is, setting by setting: (dose: 0.29 mg/kg/injection, schedule: Q01DX009 (ip), vehicle: saline) 190 % of control; (dose: 0.3 mg/kg/injection, schedule: Q01DX009 (ip), vehicle: saline) 169 % of control; (dose: 0.3 mg/kg/injection, schedule: Q04DX003 (ip), vehicle: saline) 175 % of control; (dose: 0.44 mg/kg/injection, schedule: Q01DX009 (ip), vehicle: saline) 193 % of control; (dose: 0.66 mg/kg/injection, schedule: Q01DX009 (ip), vehicle: saline) 193 % of control; (dose: 1.0 mg/kg/injection, schedule: Q01DX009 (ip), vehicle: saline) 200 % of control. For the same molecule, the T/C by setting is: (dose: 1.0 mg/kg/injection, schedule: Q04DX003 (ip), vehicle: saline) 155 % of control; (dose: 2.2 mg/kg/injection, schedule: Q04DX003 (ip), vehicle: saline) 177 % of control; (dose: 3.3 mg/kg/injection, schedule: Q04DX003 (ip), vehicle: saline) 186 % of control; (dose: 5.0 mg/kg/injection, schedule: Q04DX003 (ip), vehicle: saline) 227 % of control; (dose: 7.5 mg/kg/injection, schedule: Q04DX003 (ip), vehicle: saline) 245 % of control.

Turning to `C/C(=C/C=C(c1ccccc1)c1ccccc1)C1CCC2C3CCC4CC5CCC4(C)C3(O5)C(=O)CC12C` (stereo unspecified), the T/C was 102 % of control (dose: 6.25 mg/kg/injection, schedule: Q04DX002 (sc), vehicle: steriod suspending solution); 105 % of control (dose: 12.5 mg/kg/injection, schedule: Q04DX002 (sc), vehicle: steriod suspending solution); 101 % of control (dose: 25.0 mg/kg/injection, schedule: Q04DX002 (sc), vehicle: steriod suspending solution); 101 % of control (dose: 50.0 mg/kg/injection, schedule: Q04DX002 (sc), vehicle: steriod suspending solution).

As for `CN1CCC1=O`, the T/C by setting is: (dose: 50.0 mg/kg/injection, schedule: Q01DX009 (ip), vehicle: saline) 105 % of control; (dose: 100.0 mg/kg/injection, schedule: Q01DX009 (ip), vehicle: saline) 110 % of control; (dose: 200.0 mg/kg/injection, schedule: Q01DX009 (ip), vehicle: saline) 97 % of control.

Regarding `C=C[CH2][Sn]([CH2]C)([CH2]C)[CH2]C=C`, the T/C by setting is: (dose: 12.5 mg/kg/injection, schedule: Q01DX005 (ip), vehicle: saline) 107 % of control; (dose: 25.0 mg/kg/injection, schedule: Q01DX005 (ip), vehicle: saline) 114 % of control; (dose: 100.0 mg/kg/injection, schedule: Q01DX005 (ip), vehicle: saline) 154 % of control.

`C=C(C)[C@H]1CN[C@H](C(=O)O)[C@H]1CC(=O)O`: the T/C is 98 % of control (dose: 0.62 mg/kg/injection, schedule: Q01DX005 (ip), vehicle: saline); 92 % of control (dose: 1.25 mg/kg/injection, schedule: Q01DX005 (ip), vehicle: saline); 99 % of control and 92 % of control (dose: 2.5 mg/kg/injection, schedule: Q01DX005 (ip), vehicle: saline); 93 % of control and 96 % of control (dose: 5.0 mg/kg/injection, schedule: Q01DX005 (ip), vehicle: saline); 99 % of control and 101 % of control (dose: 10.0 mg/kg/injection, schedule: Q01DX005 (ip), vehicle: saline); 100 % of control and 116 % of control (dose: 20.0 mg/kg/injection, schedule: Q01DX005 (ip), vehicle: saline). Also, where the note is “dose: 40.0 mg/kg/injection, schedule: Q01DX005 (ip), vehicle: saline”, the T/C is 105 % of control.

Turning to `Fc1ccc(NC(=S)SCc2ccccc2)cc1`, the T/C runs as follows: (dose: 50.0 mg/kg/injection, schedule: Q01DX009 (ip), vehicle: suspension in saline) 101 % of control; (dose: 100.0 mg/kg/injection, schedule: Q01DX009 (ip), vehicle: suspension in saline) 101 % of control; (dose: 200.0 mg/kg/injection, schedule: Q01DX009 (ip), vehicle: suspension in saline) 101 % of control.

Turning to `CC1(C)CCCC12C=NCC2` (stereo unspecified), the T/C runs as follows: (dose: 6.25 mg/kg/injection, schedule: Q01DX009 (ip), vehicle: saline with Tween-80) 99 % of control; (dose: 12.5 mg/kg/injection, schedule: Q01DX009 (ip), vehicle: saline with Tween-80) 95 % of control; (dose: 25.0 mg/kg/injection, schedule: Q01DX009 (ip), vehicle: saline with Tween-80) 102 % of control; under setting [1], 101 % of control.

Turning to `C=C(Cl)CSC(=S)N1CCOCC1`, the T/C under setting [2] was 101 % of control and 102 % of control and 96 % of control; the T/C under setting [3] was 105 % of control and 107 % of control and 109 % of control; the T/C under setting [4] is 101 % of control and 120 % of control and 97 % of control.

Regarding `CCOP(=O)(O)OCc1ccccc1.[Ti]`, the T/C (dose: 50.0 mg/kg/injection, schedule: Q01DX001 (ip), vehicle: Klucel (hydroxypropylcellulose) (HPC)) was 90 % of control; the T/C (dose: 100.0 mg/kg/injection, schedule: Q01DX001 (ip), vehicle: Klucel (hydroxypropylcellulose) (HPC)) is 97 % of control; the T/C (dose: 200.0 mg/kg/injection, schedule: Q01DX001 (ip), vehicle: Klucel (hydroxypropylcellulose) (HPC)) is 93 % of control.

Take `CCNC(=O)OCCN(CCOC(=O)NCC)CCc1ccccc1`: the T/C runs as follows: (dose: 60.0 mg/kg/injection, schedule: Q01DX005 (ip), vehicle: saline) 110 % of control; (dose: 120.0 mg/kg/injection, schedule: Q01DX005 (ip), vehicle: saline) 117 % of control; (dose: 240.0 mg/kg/injection, schedule: Q01DX005 (ip), vehicle: saline) 99 % of control.

Take `C1CN1c1nnc(N2CC2)nn1`: the T/C was 178 % of control (dose: 7.5 mg/kg/injection, schedule: Q01DX005 (ip), vehicle: saline) and 260 % of control (dose: 30.0 mg/kg/injection, schedule: Q01DX005 (ip), vehicle: saline).

For the molecule `N#Cc1nn(C(N)=O)c(N)c1C#N`, the T/C runs as follows: (dose: 60.0 mg/kg/injection, schedule: Q01DX005 (ip), vehicle: Klucel (hydroxypropylcellulose) (HPC)) 104 % of control; (dose: 120.0 mg/kg/injection, schedule: Q01DX005 (ip), vehicle: Klucel (hydroxypropylcellulose) (HPC)) 105 % of control; (dose: 240.0 mg/kg/injection, schedule: Q01DX005 (ip), vehicle: Klucel (hydroxypropylcellulose) (HPC)) 103 % of control.

In the case of `CN1C2=NCCN2C(=O)c2cc(Cl)ccc21`, the T/C is, setting by setting: (dose: 50.0 mg/kg/injection, schedule: Q01DX009 (ip), vehicle: Klucel (hydroxypropylcellulose) (HPC)) 105 % of control; (dose: 100.0 mg/kg/injection, schedule: Q01DX009 (ip), vehicle: Klucel (hydroxypropylcellulose) (HPC)) 98 % of control.

Regarding `c1c2c(cc3c1OCO3)Cc1cc3c(cc1Cc1cc4c(cc1C2)OCO4)OCO3`, the T/C is 108 % of control under setting [1]; 108 % of control (dose: 100.0 mg/kg/injection, schedule: Q01DX009 (ip), vehicle: saline with Tween-80); 100 % of control (dose: 200.0 mg/kg/injection, schedule: Q01DX009 (ip), vehicle: saline with Tween-80).

As to `Cc1nc2c(cnn2C)c(=O)n1Cc1ccccc1`, the T/C reads like this: (dose: 50.0 mg/kg/injection, schedule: Q01DX005 (ip), vehicle: Klucel (hydroxypropylcellulose) (HPC)) 104 % of control; (dose: 100.0 mg/kg/injection, schedule: Q01DX005 (ip), vehicle: Klucel (hydroxypropylcellulose) (HPC)) 97 % of control; (dose: 200.0 mg/kg/injection, schedule: Q01DX005 (ip), vehicle: Klucel (hydroxypropylcellulose) (HPC)) 103 % of control.

As to `CCCC1C2C=CC(C(S(=O)(=O)c3ccccc3)C2)N1C(=O)OCC` (stereo unspecified), the T/C is, setting by setting: (dose: 25.0 mg/kg/injection, schedule: Q01DX005 (ip), vehicle: saline with Tween-80) 100 % of control; under setting [2], 103 % of control; under setting [3], 102 % of control; under setting [4], 102 % of control.

`CN(c1ccccc1)c1ccc([N+](=O)[O-])c2no[n+]([O-])c12`: the T/C (dose: 7.5 mg/kg/injection, schedule: Q01DX009 (ip), vehicle: suspension in saline) is 92 % of control and 97 % of control; the T/C (dose: 15.0 mg/kg/injection, schedule: Q01DX009 (ip), vehicle: suspension in saline) is 92 % of control and 96 % of control; the T/C (dose: 30.0 mg/kg/injection, schedule: Q01DX009 (ip), vehicle: suspension in saline) was 103 % of control and 90 % of control; the T/C (dose: 60.0 mg/kg/injection, schedule: Q01DX009 (ip), vehicle: suspension in saline) is 110 % of control and 115 % of control.
